Data published in US12077503B2, “Substituted cyclic amides and their use as herbicides” (FMC CORPORATION, priority 2015, dated 2024).

What was measured:
Format in all cases: in vivo
[1] = system: ragweed (common ragweed, Ambrosia elatior); assay: Test A preemergence; settings: Ambrosia artemisiifolia, pre-emergence, 240 h; for pest or weed control at 125 g/ha: 125 g ai/ha, preemergence, 0 to 100 scale where 0 is no effect and 100 is complete control, read-out: Ragweed plant response rating; for pest or weed control at 500 g/ha: 500 g ai/ha, Preemergence, visual injury vs untreated controls after approximately 10 d, read-out: Ragweed plant response rating (0 to 100 scale where 0 is no effect and 100 is complete control)
How it was run: (§1)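 Compounds were formulated in a non-phytotoxic solvent mixture with surfactant and applied as a preemergence directed soil spray after seeding, or sprayed postemergence over plants 2 to 10 cm tall at the one- to two-leaf stage. Evaluation after about 10 d compared treated with untreated controls, using a scale from 0 (no effect) to 100 (complete control).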

Kochia (Kochia scoparia) = assay: Test A preemergence; settings: Bassia scoparia, pre-emergence, 240 h; for pest or weed control at 125 g/ha: 125 g ai/ha, preemergence, 0 to 100 scale where 0 is no effect and 100 is complete control, read-out: Kochia plant response rating; for pest or weed control at 500 g/ha: 500 g ai/ha, Preemergence, visual injury vs untreated controls after approximately 10 d, read-out: Kochia plant response rating (0 to 100 scale where 0 is no effect and 100 is complete control)
How it was run: as §1

[2] = system: ryegrass, Italian (Italian ryegrass, Lolium multiflorum); assay: Test A preemergence; settings: Lolium multiflorum, pre-emergence, 240 h; for pest or weed control at 125 g/ha: 125 g ai/ha, preemergence, 0 to 100 scale where 0 is no effect and 100 is complete control, read-out: Ryegrass, Italian plant response rating; for pest or weed control at 500 g/ha: 500 g ai/ha, Preemergence, visual injury vs untreated controls after approximately 10 d, read-out: Ryegrass, Italian plant response rating (0 to 100 scale where 0 is no effect and 100 is complete control)
How it was run: as §1

[3] = system: pigweed (Amaranthus retroflexus); assay: Test A preemergence; settings: Amaranthus retroflexus, pre-emergence, 240 h; for pest or weed control at 125 g/ha: 125 g ai/ha, preemergence, 0 to 100 scale where 0 is no effect and 100 is complete control, read-out: Pigweed plant response rating; for pest or weed control at 500 g/ha: 500 g ai/ha, Preemergence, visual injury vs untreated controls after approximately 10 d, read-out: Pigweed plant response rating (0 to 100 scale where 0 is no effect and 100 is complete control)
[4] = system: barnyardgrass (Echinochloa crus-galli); assay: Test A preemergence; settings: Echinochloa crus-galli, pre-emergence, 240 h; for pest or weed control at 125 g/ha: 125 g ai/ha, preemergence, 0 to 100 scale where 0 is no effect and 100 is complete control, read-out: Barnyardgrass plant response rating; for pest or weed control at 500 g/ha: 500 g ai/ha, Preemergence, visual injury vs untreated controls after approximately 10 d, read-out: Barnyardgrass plant response rating (0 to 100 scale where 0 is no effect and 100 is complete control)
How it was run: as §1

[5] = system: giant foxtail (Setaria faberii); assay: Test A preemergence; settings: Setaria faberi, pre-emergence, 240 h; for pest or weed control at 125 g/ha: 125 g ai/ha, preemergence, 0 to 100 scale where 0 is no effect and 100 is complete control, read-out: Foxtail, Giant plant response rating; for pest or weed control at 500 g/ha: 500 g ai/ha, Preemergence, visual injury vs untreated controls after approximately 10 d, read-out: Foxtail, Giant plant response rating (0 to 100 scale where 0 is no effect and 100 is complete control)
How it was run: as §1

rice (Oryra sativa) = assay: Test B flooded paddy test; settings: Oryza sativa, Flood, 250 g ai/ha; scale of 0 to 100 where 0 is no effect and 100 is complete control; read-out: Rice plant response rating
How it was run: (§2)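 Flooding to 3 cm over soil accompanied treatment, which consisted of adding compound to the standing water around 2-leaf plants; depth was then maintained. Visual assessment versus controls followed at 13 to 15 d (scale 0–100, 0 meaning no effect).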

[6] = system: barnyardgrass (Echinochloa crus-galli); assay: Test B flooded paddy test; settings: Echinochloa crus-galli, Flood, 250 g ai/ha; scale of 0 to 100 where 0 is no effect and 100 is complete control; read-out: Barnyardgrass plant response rating
How it was run: as §2

[7] = system: sedge, umbrella (small-flower umbrella sedge, Cyperus difformis); assay: Test B flooded paddy test; settings: Cyperus difformis, Flood, 250 g ai/ha; scale of 0 to 100 where 0 is no effect and 100 is complete control; read-out: Sedge, Umbrella plant response rating
How it was run: as §2

[8] = system: ducksalad (Heteranthera limosa); assay: Test B flooded paddy test; settings: Heteranthera limosa, Flood, 250 g ai/ha; scale of 0 to 100 where 0 is no effect and 100 is complete control; read-out: Ducksalad plant response rating
How it was run: as §2

[9] = system: wheat (Triticum aestivum); assay: Test A postemergence; settings: Triticum aestivum, post-emergence, 240 h, 125 g ai/ha, postemergence, visual injury rating after approximately 10 d; read-out: Wheat plant response rating (0 to 100 scale, 0 no effect, 100 complete control)
How it was run: as §1

[10] = system: ragweed (common ragweed, Ambrosia elatior); assay: Test A postemergence; settings: Ambrosia artemisiifolia, post-emergence, 240 h, 125 g ai/ha, postemergence, visual injury rating after approximately 10 d; read-out: Ragweed plant response rating (0 to 100 scale, 0 no effect, 100 complete control)
How it was run: as §1

[11] = system: ryegrass, Italian (Italian ryegrass, Lolium multiflorum); assay: Test A postemergence; settings: Lolium multiflorum, post-emergence, 240 h, 125 g ai/ha, postemergence, visual injury rating after approximately 10 d; read-out: Ryegrass, Italian plant response rating (0 to 100 scale, 0 no effect, 100 complete control)
How it was run: as §1

[12] = system: giant foxtail (Setaria faberii); assay: Test A postemergence; settings: Setaria faberi, post-emergence, 240 h, 125 g ai/ha, postemergence, visual injury rating after approximately 10 d; read-out: Foxtail, Giant plant response rating (0 to 100 scale, 0 no effect, 100 complete control)
How it was run: as §1

Compound	pest or weed control at 125 g/ha [1]	pest or weed control at 500 g/ha [1]	pest or weed control at 125 g/ha (Kochia (Kochia scoparia))	pest or weed control at 500 g/ha (Kochia (Kochia scoparia))	pest or weed control at 125 g/ha [2]	pest or weed control at 500 g/ha [2]	pest or weed control at 125 g/ha [3]	pest or weed control at 500 g/ha [3]	pest or weed control at 125 g/ha [4]	pest or weed control at 500 g/ha [4]	pest or weed control at 125 g/ha [5]	pest or weed control at 500 g/ha [5]	pest or weed control at 250 g/ha (rice (Oryra sativa))	pest or weed control at 250 g/ha [6]	pest or weed control at 250 g/ha [7]	pest or weed control at 250 g/ha [8]	plant injury at 125 g/ha [9]	pest or weed control at 125 g/ha [10]	pest or weed control at 125 g/ha [11]	pest or weed control at 125 g/ha [12]
COc1c(F)ccc([C@H]2CN(C)C(=O)[C@@H]2C(=O)Nc2ccccc2S(C)(=O)=O)c1Cl [Compound 897]	20%	60%	60%	90%	20%	50%	30%	60%	80%	90%	90%	100%	0%	45%	0%	45%	30%	20%	20%	80%
CCOc1ccc([C@H]2CN(C)C(=O)[C@@H]2C(=O)Nc2cccc(F)c2F)cc1 [Compound 904]	0%	0%	90%	90%	0%	0%	0%	50%	90%	90%	90%	90%	0%	0%	0%	0%	0%	0%	0%	80%
Cc1cc(C)cc([C@H]2CN(C)C(=O)[C@@H]2C(=O)Nc2cccc(F)c2F)c1 [Compound 911]	0%	60%	90%	100%	70%	90%	20%	50%	90%	100%	90%	100%	0%	80%	0%	75%	50%	0%	70%	90%
CCc1cc([C@H]2CNC(=O)[C@@H]2C(=O)Nc2ccccc2F)cs1 [Compound 913]	0%	60%	0%	40%	0%	40%	0%	0%	80%	90%	50%	90%	0%	0%	0%	90%	0%	30%	0%	30%
